The target in the assay is T1, Substance-K receptor (Homo sapiens, UniProt P21452).
T1 sequence (P21452 whole entry): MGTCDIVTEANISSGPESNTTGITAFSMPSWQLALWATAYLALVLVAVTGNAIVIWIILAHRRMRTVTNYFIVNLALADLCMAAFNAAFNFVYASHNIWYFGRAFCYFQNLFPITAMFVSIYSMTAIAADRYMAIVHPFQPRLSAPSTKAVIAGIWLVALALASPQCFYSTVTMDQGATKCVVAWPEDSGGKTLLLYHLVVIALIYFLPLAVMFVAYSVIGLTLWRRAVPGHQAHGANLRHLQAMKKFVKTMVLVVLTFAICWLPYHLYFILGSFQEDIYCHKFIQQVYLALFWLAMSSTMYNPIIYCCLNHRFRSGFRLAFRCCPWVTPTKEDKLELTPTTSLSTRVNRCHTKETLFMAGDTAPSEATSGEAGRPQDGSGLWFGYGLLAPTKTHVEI
Briefly: Binding affinity for heterologously expressed human Tachykinin receptor 2 using [3H]-SR- 48968 as radioligand.
Compound `[O-][S+](C[C@]1(O)CCN2CCc3c([nH]c4ccc(F)cc34)[C@H]2C1)c1ccccc1` (mixture of isomers) registered an IC50 of 25300 nM. This lies in the double-digit micromolar range.
`COC1(C[S+]([O-])c2ccccc2)CCN(CCc2c[nH]c3ccc(F)cc23)CC1` (racemic): the IC50 amounted to 2.5 nM.
For the compound `[O-][S+](CC1(O)CCN(CCc2c[nH]c3ccc(F)cc23)CC1)c1ccc2ccccc2c1` (racemic), the half-maximal inhibitory concentration (IC50) turned out to be 13.4 nM.
`CN(C)C(=O)NC1(c2ccccc2)CCN(CC[C@@]2(c3ccc(F)c(F)c3)CN(C(=O)c3ccccc3)CCO2)CC1` (racemic) displayed an IC50 of 6 nM.
Compound `[O-][S+](c1ccccc1)C(c1ccccc1)C1(O)CCN(CCc2c[nH]c3ccc(F)cc23)CC1` (racemic) displayed an IC50 of 111 nM. Compared with the last compound, the IC50 is about 18-fold higher.
As for `CN(C[C@@H](CCN1CCC(NC(=O)c2ccccc2)(c2ccccc2)CC1)c1ccc(Cl)c(Cl)c1)C(=O)c1ccccc1` (racemic), the concentration for half-maximal inhibition (IC50) amounted to 14.3 nM.
With `[O-][S+](CC1(O)CCN(CCc2c[nH]c3ccc(F)cc23)CC1)c1ccccc1` (racemic) [4-BENZENESULFINYLMETHYL-1-[2-(5-FLUORO-1H-INDOL-3-YL)-ETHYL]-PIPERIDIN-4-OL (STRUCTURAL MIX)], the IC50 amounted to 22 nM.

For the origin of these results see ChEMBL document CHEMBL1134241, “Spatial requirements of the antagonist binding site of the NK2 receptor” (Bioorg Med Chem Lett, 2001).
